{"source": "paper PMC5531749", "about": "(Psychopharmacology, 2016)", "key": {"[1]": {"system": "visceral insular cortex (VIC) of rats", "details": "intra-VIC, cited from earlier work"}, "male Sprague-Dawley rats [2]": {"system": "male Sprague-Dawley rats", "details": "cited from earlier work"}, "[3]": {"system": "AEA and 2-AG in rat whole brain tissue", "details": "ref Limebeer et al. 2014; cited from earlier work"}, "rat MAGL": {"system": "rat MAGL", "details": "ref Limebeer et al. 2014; cited from earlier work"}, "[4]": {"system": "2AG and AEA levels in nucleus accumbens", "details": "localized brain area; ref Wiskerke et al. (2012); cited from earlier work"}, "[5]": {"system": "2-AG and AEA in VIC tissue", "details": "systemic and intra-VIC administration; ref Sticht et al. (2015); cited from earlier work"}, "male Sprague-Dawley rats [6]": {"system": "male Sprague-Dawley rats", "details": "cited from earlier work", "remark": "listed apart in the source"}, "male Sprague-Dawley rats [7]": {"system": "male Sprague-Dawley rats", "experiment": "Anticipatory nausea: contextually elicited conditioned gaping", "assay_type": "in vivo, rat"}, "male Sprague-Dawley rats [8]": {"system": "male Sprague-Dawley rats", "assay_type": "in vivo, rat", "details": "SR141716 2.5 mg/kg 90 min after AM4301 20 mg/kg"}, "[9]": {"details": "10–20 mg/kg systemic, CB1 receptor-dependent, ref Parker et al. 2014"}}, "note": "Where two headings read alike, the source gives them in different places."}
{"smiles": "CCCCCCC(C)(C)c1cc(O)c2c(c1)OC(C)(C)[C@@H]1CC=C(CO)C[C@@H]21", "note": "[HU-210]", "values": [{"measurement": "acute nausea after administration into the VIC", "setting": "[1]; ref Limebeer et al. 2012", "result": "suppressed"}]}
{"smiles": "O=C(Oc1ccc([N+](=O)[O-])cc1)N1CCN(Cc2cccc(Oc3ccccc3)c2)CC1", "note": "[JZL195]", "values": [{"measurement": "anticipatory nausea, dual FAAH/MAGL inhibitor", "setting": "male Sprague-Dawley rats [2]; 10 mg/kg, ref Limebeer et al. 2014", "result": "suppresses"}, {"measurement": "AEA in rat whole brain tissue", "setting": "[3]", "result": "elevated"}, {"measurement": "blocking the activities of rat MAGL in whole brain analysis", "setting": "rat MAGL", "result": "ineffective"}, {"measurement": "elevation of 2AG level in nucleus accumbens", "setting": "[4]", "result": "about 50%"}, {"measurement": "elevation of AEA level in nucleus accumbens", "setting": "[4]", "result": "~100", "unit": "%"}]}
{"smiles": "O=C(ON1C(=O)CCC1=O)N1CCN(C(c2ccc(Cl)cc2)c2ccc(Cl)cc2)CC1", "note": "[MJN110]", "values": [{"measurement": "anticipatory nausea, systemic MAGL inhibitor", "setting": "male Sprague-Dawley rats [2]; [9]", "result": "suppresses"}, {"measurement": "acute nausea after administration into the VIC", "setting": "[1]; ref Sticht et al. 2012b", "result": "suppressed"}, {"measurement": "2-AG in the VIC", "setting": "[5]", "result": "elevates"}, {"measurement": "acute nausea, systemic MAGL inhibitor", "setting": "male Sprague-Dawley rats [6]; [9]", "result": "suppresses"}]}
{"smiles": "Cc1c(C(=O)NN2CCCCC2)nn(-c2ccc(Cl)cc2Cl)c1-c1ccc(Cl)cc1", "note": "[SR141716]", "values": [{"measurement": "reversal of AM4302 suppression of anticipatory nausea by CB1 antagonist", "setting": "male Sprague-Dawley rats [7]; SR 2.5 mg/kg 90 min after AM4302 20 mg/kg", "result": "reversed"}, {"measurement": "effect of CB1 antagonist on its own on contextually elicited gaping", "setting": "male Sprague-Dawley rats [7]; VEH-SR 2.5 mg/kg", "result": "did not have an effect on its own"}, {"measurement": "reversal of AM4301 suppression of acute nausea by CB1 antagonist", "setting": "male Sprague-Dawley rats [8]", "result": "reversed the suppressive effect of AM4301"}]}
{"smiles": "NC(=O)c1cccc(-c2cccc(OC(=O)NC3CCCCC3)c2)c1", "note": "[URB597, cyclohexyl carbamic acid 3′-carbamoyl-biphenyl-3-yl ester]", "values": [{"measurement": "anticipatory nausea, systemic FAAH inhibitor", "setting": "male Sprague-Dawley rats [2]; 0.3 mg/kg systemic, ref Rock et al. 2008", "result": "suppresses"}, {"measurement": "acute nausea, systemic FAAH inhibitor", "setting": "male Sprague-Dawley rats [6]; 0.3 mg/kg systemic, ref Cross-Mellor et al. 2007", "result": "suppresses"}]}
